Assay results published in article PMC3500442 (ACS Chemical Biology, 2012).

Biological target: T1, MJ0408 (MptD, archaeal DHNA) (Methanocaldococcus jannaschii, UniProt Q57851)
T1 sequence (Q57851 1-121): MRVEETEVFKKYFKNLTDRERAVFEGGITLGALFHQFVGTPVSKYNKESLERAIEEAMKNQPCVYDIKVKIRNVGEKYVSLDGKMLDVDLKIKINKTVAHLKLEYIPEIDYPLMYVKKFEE
Test: HPLC fluorescence after iodine oxidation
Assay type: biochemical
Details: 110 uM H2Neo, 8 mM MgCl2, 16 mM DTT, TES/KCl pH 7.4, 70 °C, argon

SMILES	HPLC fluorescence after iodine oxidation
Nc1nc2c(c(=O)[nH]1)N=C([C@H](O)[C@H](O)CO)CN2 [H2Neo, 7,8-dihydroneopterin]	it was found to catalyze the formation of 6-HMD from H2Neo
Nc1nc2c(c(=O)[nH]1)N=C(CO)CN2 [6-HMD, 6-hydroxymethyl-7,8-dihydropterin]	it was found to catalyze the formation of 6-HMD from H2Neo
